Test: Fluorescence properties of DHP-cyanine dyes (excitation/absorbance and emission maxima, extinction coefficient)
Format: physicochemical
Details: for λem (emission wavelength) / λex (maximum excitation wavelength): Table 1
From the text: The term “absorbance maxima” or “Abs λ max” or “max λ abs” refer to wavelength of maximum absorbance measured by UV Vis spectroscopy.

Structure (SMILES)	λem (emission wavelength)	λex (maximum excitation wavelength)	Abs max (purified dye)	emission max (purified dye)	extinction coefficient (purified dye)
CC1(C)C(/C=C/C=C/C=C2\N(CCCS(=O)(=O)O)c3ccc(C(=O)O)cc3C2(C)C)=[N+](CCCS(=O)(=O)O)c2cc3c4c(c21)CCc1cc(S(=O)(=O)[O-])cc(c1-4)S3(=O)=O [Compound 25, (Z)-2-((2E,4E)-5-(2-((l1-oxidaneyl)dioxo-l6-sulfaneyl)-6-(3-((l1-oxidaneyl)dioxo-l6-sulfaneyl)propyl)-8,8-dimethyl-4,4-dioxido-9,10-dihydro-8H-6l4-thieno[2′,3′,4′,5′:4,5]phenanthro[2,1-b]pyrrol-7-yl)penta-2,4-dien-1-ylidene)-1-(3-((l1-oxidaneyl)dioxo-l6-sulfaneyl)propyl)-3,3-dimethylindoline-5-carboxylic Acid]	686 nm	666 nm	666 nm	686 nm	150450 M⁻¹ cm⁻¹
CC1(C)Cc2c3c(cc4c2C(C)(C)C(/C=C/C=C/C=C2\N(CCCCCC(=O)O)c5ccc(S(=O)(=O)O)cc5C2(C)C)=[N+]4CCCS(=O)(=O)O)S(=O)(=O)c2cc(S(=O)(=O)O)cc1c2-3 [Compound 36, 2-((l1-oxidaneyl)dioxo-l6-sulfaneyl)-7-((1E,3E)-5-((Z)-5-((l1-oxidaneyl)dioxo-l6-sulfaneyl)-1-(5-carboxypentyl)-3,3-dimethylindolin-2-ylidene)penta-1,3-dien-1-yl)-6-(3-((l1-oxidaneyl)dioxo-l6-sulfaneyl)propyl)-8,8,10,10-tetramethyl-9,10-dihydro-8H-thieno[2′,3′,4′,5′:4,5]phenanthro[2,1-b]pyrrol-6-ium 4,4-dioxide]	683 nm	663 nm	663 nm	683 nm	–
